According to patent US12440466B2, “Fatty acid derivatives for treating non-alcoholic steatohepatitis” (BASF AS, priority 2017, dated 2025):
Marks after values point to notes of the source that are not given here.

Key:
[1] = system: CDAA/high-fat fed mice; test: Hepatic lipidomic analysis, CDAA/high-fat diet mouse model; type: in vivo; conditions: Compound A 112 mg/kg bw per day or equimolar EPA, orally
Procedure: (§1) In Biological Examples 1-7, studies were performed in male C56BL/6J mice (9 weeks old). Mice were fed either choline-sufficient (CS) or choline deficient high-fat diets (31% total calories; “CDAA/high-fat”). The NASH inducing diet was instigated 6 weeks prior to the commencement of treatment in order to design the study as a treatment/reversal set-up rather than prophylaxis.
In Biological Example 7, after 6 weeks of either the CS or CDAA/high-fat diet, mice were administered 112 mg/kg bw per day of Compound A, or an equimolar dose of eicosapentaenoic acid (EPA), delivered orally. Hepatic lipidomic analysis was performed in isolated liver samples from CS (n=9), Compound A (n=9) and EPA (n=8) groups.
To further understand the effects of Compound A on hepatic lipid metabolism, lipidomic analysis of CS- and CDAA/high-fat fed mice (“CD”) was performed in isolated liver tissue.

[2] = system: APOE*3Leiden.CETP mice; test: Hepatic free cholesterol, cholesterol ester and triglyceride content (HPTLC) in APOE*3Leiden.CETP mice; type: in vivo, mouse; conditions: ApoE*3L-CETP mice, Western diet 0.25% cholesterol, 4 weeks; Compound A LD 0.3 mmol/kg bw/day; EPA/DHA ethyl esters HD 3 mmol/kg bw/day
Description: The APOE*3Leiden.CETP double transgenic mouse expresses a variant of the human apolipoprotein E3 (APOE3), the APOE*3Leiden, in addition to the human apolipoprotein C1 (APOC1) and CETP. […] By increasing the cholesterol content of the diet in this model, all the characteristics of human NASH develop.
In Biological Example 25, the effects of Compound A alone and in combination with omega-3 fatty acid were studied. APOE*3Leiden.CETP mice were placed on a semi-synthetic high fat diet (24% fat w/w) with […] w/w. After a 4-week run-in period, low-responder mice were removed from the study and the remaining mice were sub-divided into groups of 8 mice each, matched for plasma cholesterol, triglycerides, blood glucose, body weight and age (t=0) and treatment was started. To facilitate mixing of the compounds, sunflower oil was added to a total oil volume of 10 mL/kg diet. Compound A was administered at 0.3 mmol/kg bw/day whilst the omega-3 fatty acid ethyl-esters (85% w/w EPA/DHA ethyl-esters) were administered at 3.0 mmol/kg bw/day. Both Compound A and the omega-3 ethyl esters were administered orally as admix to the high-fat diet. After 4 weeks of treatment, mice were sacrificed by C02 asphyxiation, the liver was collected and the hepatic content of free cholesterol, cholesterol ester and triglyceride were measured after extraction and separation by high performance thin layer chromatography.

[3] = system: CDAA/high-fat fed mice; test: Hepatic hydroxyproline (HYP) content, CDAA/high-fat diet induced NASH mouse model; type: in vivo
Description: Mouse models that are deficient in methionine and/choline (MCD and CDAA respectively) are well established for studying the development and treatment of NASH in pre-clinical drug development. As precursors for the synthesis of phosphatidylcholine, a dietary deficiency of methionine/choline leads to an inability to synthesize hepatic lipoproteins for the export of triglyceride that results in severe hepatic steatosis, inflammation and fibrosis.
Although the widely used methionine-choline deficient (MCD) diet consistently reproduces severe NASH-like hepatic inflammation and fibrosis in mice, it is also associated with severe weight-loss (loss of both skeletal muscle and fat mass). This is associated with an increased risk of death which presents major problems for long-term fibrogenesis experiments.
as §1
In Biological Examples 1-5, mice were divided into 6 experimental groups (n=9 per group) and fed either CS or CDAA/high-fat diets. After 6 weeks of either the CS- or CDAA diet, mice were orally administered Compound A or comparison Compound N, both at 2 doses, 0.15 mmol/kg bw/day (low-dose, LD) and 0.3 mmol/kg bw per day (high-dose, HD). The test substances were administered orally as admix to the high-fat diet. Hepatic fibrosis was assessed by both measurement of hydroxyproline (HYP) content and Sirius Red (SR) morphometry. Fibrosis, inflammation and metabolism related transcripts levels were measured by quantitative real-time polymerase chain reaction (qPCR).

[4] = system: inflammatory genes; test: Hepatic inflammatory gene expression in ob/ob AMLN mice; type: in vivo, mouse; conditions: 4 weeks, Compound A 112 mg/kg
Procedure: Obese diet-induced B6.V-Lepob/Jrj mice (ob/ob) are consistently fibrosis (liver) prone when cholesterol (2%), 40% fat (containing 18% trans-fatty acids) and 20% fructose are added to a high-caloric diet (i.e., AMLN high-fat diet). ob/ob mice on AMLN diet (termed ‘ob/ob AMLN mice’) develop steatohepatitis and fibrosis within a shorter timeframe ([…]) compared with wild-type C57BL/6 mice (AMLN mice) fed the same diet. ob/ob AMLN mice provide an obese diet-induced model of NASH that also allows the study of effects on glycemic control. Development of NASH in the ob/ob AMLN model is confirmed by biopsy.
In Biological Examples 10-12, 15, and 19, studies were performed in male ob/ob mice (5 weeks old) fed an AMLN high-fat diet for 15 weeks, then randomized into 3 groups (n=10 per group) to receive either 112 mg/kg bw per day of Compound A via diet, 30 mg/kg bw per day pioglitazone via diet or no treatment (vehicle) for a further 4 weeks. An oral glucose tolerance test (OGTT) was performed at week 3. Hepatic fibrosis was assessed via measurements of hepatic fibrogenic/fibrolytic gene expression by RNA sequencing at 4 weeks.

[5] = system: LX-2 human hepatic stellate cells; test: LX-2 stellate cell proliferation by BrdU incorporation; type: cell-based; conditions: LX-2 cells, 24 hours
Procedure: Stellate cells are resident liver cells and the major cell type involved in the initiation and progression of liver fibrosis. In Biological Example 20, in vitro studies were performed on cultured human stellate cells (LX-2 cells) to assess direct effects of Compound A on these cells. Cells were treated for 24 hours with Compound A (10 μM, 25 μM, 50 μM, or 75 μM) or oleic acid (OA; 75 μM) and bromodeoxyuridine (BrdU) incorporation was assessed to determine effects on proliferation. A MTS (3-(4,5-dimethylthiazol-2-yl)-5-(3-carboxymethoxyphenyl)-2-(4-sulfophenyl)-2H-tetrazolium) assay was used to determine cell viability.
Cell proliferation of LX-2 human hepatic stellate cells treated for 24 hours with 10-75 μM of Compound A or oleic acid (OA) (75 μM) was assessed by BrdU incorporation. The results are normalised mean values ±S.E.M. of 5 independent experiments for icosabutate and 2 independent experiments for OA. […] The reduction in proliferation by Compound A was 25-34% at 24 hours whereas OA had no effect. The comparisons were made by one-way ANOVA with Dunnett's correction for multiple comparisons.

[6] = pioglitazone 30 mg/kg, data not shown
[7] = pioglitazone 30 mg/kg, vs vehicle

## CC/C=C\C/C=C\C/C=C\C/C=C\C/C=C\CCCCOC(CC)C(=O)O (stereo not drawn) [Compound A, 2-((5Z,8Z,11Z,14Z,17Z)-icosa-5,8,11,14,17-pentaenyloxy)butanoic acid]
[1]
  hepatic cholesteryl ester: significantly reduced
  hepatic diglycerides (DG): significantly reduced
  hepatic free fatty acids (FFA): significantly reduced
  hepatic triglyceride (TG): significantly reduced
[2]
  Hepatic CE: 17*
  Hepatic FC: 9.5
  Hepatic TG: 58.8
[3]; HD 0.3 mmol/kg bw per day orally as admix to diet
  Hydroxyproline (μg) content per 100 mg liver: 37 μg HYP/per 100 mg liver
[3]; LD 0.15 mmol/kg bw/day orally as admix to diet
  Hydroxyproline (μg) content per 100 mg liver: 38 μg HYP/per 100 mg liver
[3]; high dose (HD) 0.3 mmol/kg bw per day orally as admix to diet
  Hydroxyproline (μg) content per liver: 750** μg
[3]; low dose (LD) 0.15 mmol/kg bw/day orally as admix to diet
  Hydroxyproline (μg) content per liver: 800* μg
[4]; data not shown
  MAC-2 expression: Significant reductions
[4]; [6]
  MCP-1 transcript levels: Neither compound significantly reduced
  interleukin (IL)-1β transcript levels: Neither compound significantly reduced
[4]; [7]
  CCR2 expression: Significant reductions
  CD14 expression: Significant reductions
  CD68 expression: Significant reductions
  transcript levels of TGF-β1: reduced
  transcript levels of TGF-β1 receptor (TGFRβ): reduced
[4]; vs vehicle
  Galectin-3 (Gal-3) levels: significantly reduced
[5]; 25 μM, p<0.005
  proliferation (BrdU incorporation) compared to OA or vehicle: less proliferative
[5]; 50 μM, p<0.0001
  proliferation (BrdU incorporation) compared to OA or vehicle: less proliferative
[5]; 75 μM, p<0.005
  proliferation (BrdU incorporation) compared to OA or vehicle: less proliferative
[5]; Compound A 25-75 μM
  reduction in proliferation (BrdU incorporation): 25-34%
